Results taken from patent US11298412B2, “Sphingoid compounds for prophylaxis and/or therapy of coronaviridae infection” (priority 2020, dated 2022).
“Also recorded” adds a separate entry of the source.

What was measured:
[1] = test system: rhinovirus strain RV14 (major strain); experiment: Rhinovirus RV14 infection of Hela cells, Trypan Blue cell death; type: cell-based; settings: 10 μM and 20 μM, added 10 min before or 60 min or 240 min after infection, 4 days
[2] = test system: RV1b; experiment: Binding of sphingosine to RV1b immobilized on agarose beads, remaining sphingosine by kinase assay; parameters: species or system rhinovirus; settings: 250 μM sphingosine in PBS pH 7.0; 4 hrs at 4° C.
Experimental: As a complement to the above study, RV1b (obtained from ATCC) were immobilized to agarose beads and tested for binding of sphingosine (SPH). To this end, we incubated 1 μg/ml anti-RV1b antibodies with 10^6 CFU RV1b for 1 h at 4° C. in H/S, added 50 μL agarose protein A/G beads (Santa Cruz Inc.), incubated for an additional 1 h at 4° C. and washed the immobilized precipitates 5-times in H/S. We resuspended the beads in 500 μL PBS (pH 7.0) containing 250 μM sphingosine. Samples were incubated for 4 hrs at 4° C., pelleted and aliquots of the supernatants were added to 50 mM HEPES (pH 7.4), 250 mM NaCl, 30 mM MgCl2, 0.001 units sphingosine kinase (R&D), 1 mM ATP and 10 μCi [^32P]γATP. The kinase reaction was performed for 1 hr at 30° C., stopped by addition of 20 μl 1N HCl, 800 μl CHCl3/CH3OH/1N HCl (100:200:1, v/v/v), 240 μl CHCl3 and 2 M KCl. Phases were separated, the lower phase was collected, dried, dissolved in 20 μL of CHCl3:CH3OH (1:1, v/v) and separated on Silica G60 thin layer chromatography (TLC) plates using CHCl3/CH3OH/acetic acid/H2O (90:90:15:5, v/v/v/v). The TLC plates were exposed to radiography films, spots were removed from the plates, and the incorporation of [^32P] into sphingosine measured by liquid scintillation counting. Sphingosine was determined using a standard curve of C18-SPH. […]

[3] = test system: pp-VSV-SARS-CoV-2 spike; type: cell-based
[4] = molecular target: T1, recombinant ACE2 (Homo sapiens, UniProt Q9BYF1); experiment: Binding of lipids to immobilized recombinant ACE2; settings: sphingosine at 2 μM
T1 construct: purchased Abcam ab273687

[5] = molecular target: T2, receptor binding domain of spike S1 / ACE2 (Homo sapiens, UniProt Q9BYF1); experiment: Binding of recombinant RBD of spike S1 to immobilized Fc-ACE2, western blot
T2 construct: purchased Abcam (Fc-ACE2); Sino Biologicals (RBD-spike) ab273687 (Fc-ACE2); MA FE2702B, #40150-R007 (as printed for RBD-spike)

[6] = test system: human nasal epithelial cells; experiment: Toxicity on human nasal epithelial cells; settings: as per the Vero cell studies
[7] = test system: Hela cells; experiment: Effect of sphingosine alone on Hela cells, Trypan Blue cell death; settings: uninfected Hela cells; 10 μM or 20 μM

T1 sequence (Q9BYF1 18-805): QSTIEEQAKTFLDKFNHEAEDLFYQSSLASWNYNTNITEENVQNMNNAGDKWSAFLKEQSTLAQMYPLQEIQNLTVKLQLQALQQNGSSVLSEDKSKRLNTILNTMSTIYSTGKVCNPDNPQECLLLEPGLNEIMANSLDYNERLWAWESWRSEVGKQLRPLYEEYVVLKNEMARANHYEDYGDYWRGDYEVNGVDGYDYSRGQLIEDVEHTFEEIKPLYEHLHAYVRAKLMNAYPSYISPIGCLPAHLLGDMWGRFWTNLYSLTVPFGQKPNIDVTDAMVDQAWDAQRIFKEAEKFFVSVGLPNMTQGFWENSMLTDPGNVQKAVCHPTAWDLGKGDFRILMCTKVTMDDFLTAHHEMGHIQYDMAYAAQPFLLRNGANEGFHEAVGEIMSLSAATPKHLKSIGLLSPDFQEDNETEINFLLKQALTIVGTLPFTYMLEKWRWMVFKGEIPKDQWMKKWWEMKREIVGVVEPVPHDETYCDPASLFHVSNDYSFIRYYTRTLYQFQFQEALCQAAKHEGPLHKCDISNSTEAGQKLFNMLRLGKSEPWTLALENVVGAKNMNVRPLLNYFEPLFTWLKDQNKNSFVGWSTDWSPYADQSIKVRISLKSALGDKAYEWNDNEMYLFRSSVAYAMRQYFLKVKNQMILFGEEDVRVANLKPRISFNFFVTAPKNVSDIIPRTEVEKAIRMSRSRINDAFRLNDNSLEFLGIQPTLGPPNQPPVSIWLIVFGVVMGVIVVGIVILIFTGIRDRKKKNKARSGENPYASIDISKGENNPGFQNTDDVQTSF
T2 sequence (Q9BYF1 18-740): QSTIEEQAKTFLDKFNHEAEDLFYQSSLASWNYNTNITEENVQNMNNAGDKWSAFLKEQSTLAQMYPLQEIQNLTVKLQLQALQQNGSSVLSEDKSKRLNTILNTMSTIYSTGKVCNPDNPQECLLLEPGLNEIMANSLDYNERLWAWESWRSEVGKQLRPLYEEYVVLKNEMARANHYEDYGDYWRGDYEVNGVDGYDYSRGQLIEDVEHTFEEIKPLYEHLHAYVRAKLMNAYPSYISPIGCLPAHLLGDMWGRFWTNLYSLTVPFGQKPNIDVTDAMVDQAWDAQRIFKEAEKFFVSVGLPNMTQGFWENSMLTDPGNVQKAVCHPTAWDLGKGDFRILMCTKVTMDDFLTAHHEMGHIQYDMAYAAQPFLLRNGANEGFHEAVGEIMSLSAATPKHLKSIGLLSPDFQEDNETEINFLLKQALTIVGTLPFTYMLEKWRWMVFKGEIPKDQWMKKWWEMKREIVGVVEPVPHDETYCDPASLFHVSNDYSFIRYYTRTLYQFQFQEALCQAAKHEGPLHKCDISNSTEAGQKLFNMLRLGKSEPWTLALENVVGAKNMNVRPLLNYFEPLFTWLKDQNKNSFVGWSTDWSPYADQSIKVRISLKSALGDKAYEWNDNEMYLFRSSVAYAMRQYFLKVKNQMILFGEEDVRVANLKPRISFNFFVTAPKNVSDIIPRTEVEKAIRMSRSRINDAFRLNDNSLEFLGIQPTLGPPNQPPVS

CCCCCCCCCCCCC/C=C/[C@@H](O)[C@@H](N)CO [sphingosine, (2S,3R,4E)-2-amino-4-octadecene-1,3-diol]
infection with RV14 (percentage of dead cells) [1]: prevented the infection; also recorded: prevention of RSV2 and RSV14 infection | binding of sphingosine to RV1b-coupled agarose beads (remaining sphingosine in the supernatant) [2]: efficiently bind sphingosine | effect on infection of Vero epithelial cells with pp-VSV-SARS-CoV-2 [3]: marked effect | infection of Vero cells by SARS-CoV-2 [3]: prevents infection of Vero cells by SARS-CoV-2 | reduction of the infection of Vero epithelial cells with pp-VSV-SARS-CoV-2 [3]: more than 90% | binding of lipid to immobilized recombinant ACE2 (beads) [4]: revealed a binding of sphingosine to ACE2; also recorded: selectively couples to beads with bound recombinant ACE2; also recorded: binds the ACE2 receptor | binding of recombinant receptor binding domain of spike S1 to ACE2 ([5]; immobilized Fc-ACE2 pre-incubated with 1 μM or 2 μM sphingosine): prevented binding of recombinant receptor binding domain of spike S1 to ACE2 | binding of the recombinant RBD of spike S1 to ACE2 ([5]; immobilized Fc-ACE2 pre-incubated with 2 μM sphingosine): reduced binding of the recombinant RBD of spike S1 to ACE2 | toxic effects on nasal epithelial cells [6]: no toxic effects on nasal epithelial cells; also recorded: without negative effects on the cells | effect of sphingosine itself on the cells (percentage of dead cells) [7]: no effect on the cells
